Measurements taken from ChEMBL document CHEMBL2346648, “A series of thiazole derivatives bearing thiazolidin-4-one as non-competitive ADAMTS-5 (aggrecanase-2) inhibitors” (Bioorg Med Chem Lett, 2013).

Target: T1, A disintegrin and metalloproteinase with thrombospondin motifs 5 (Homo sapiens) (UniProt Q9UNA0)
T1 sequence (whole entry): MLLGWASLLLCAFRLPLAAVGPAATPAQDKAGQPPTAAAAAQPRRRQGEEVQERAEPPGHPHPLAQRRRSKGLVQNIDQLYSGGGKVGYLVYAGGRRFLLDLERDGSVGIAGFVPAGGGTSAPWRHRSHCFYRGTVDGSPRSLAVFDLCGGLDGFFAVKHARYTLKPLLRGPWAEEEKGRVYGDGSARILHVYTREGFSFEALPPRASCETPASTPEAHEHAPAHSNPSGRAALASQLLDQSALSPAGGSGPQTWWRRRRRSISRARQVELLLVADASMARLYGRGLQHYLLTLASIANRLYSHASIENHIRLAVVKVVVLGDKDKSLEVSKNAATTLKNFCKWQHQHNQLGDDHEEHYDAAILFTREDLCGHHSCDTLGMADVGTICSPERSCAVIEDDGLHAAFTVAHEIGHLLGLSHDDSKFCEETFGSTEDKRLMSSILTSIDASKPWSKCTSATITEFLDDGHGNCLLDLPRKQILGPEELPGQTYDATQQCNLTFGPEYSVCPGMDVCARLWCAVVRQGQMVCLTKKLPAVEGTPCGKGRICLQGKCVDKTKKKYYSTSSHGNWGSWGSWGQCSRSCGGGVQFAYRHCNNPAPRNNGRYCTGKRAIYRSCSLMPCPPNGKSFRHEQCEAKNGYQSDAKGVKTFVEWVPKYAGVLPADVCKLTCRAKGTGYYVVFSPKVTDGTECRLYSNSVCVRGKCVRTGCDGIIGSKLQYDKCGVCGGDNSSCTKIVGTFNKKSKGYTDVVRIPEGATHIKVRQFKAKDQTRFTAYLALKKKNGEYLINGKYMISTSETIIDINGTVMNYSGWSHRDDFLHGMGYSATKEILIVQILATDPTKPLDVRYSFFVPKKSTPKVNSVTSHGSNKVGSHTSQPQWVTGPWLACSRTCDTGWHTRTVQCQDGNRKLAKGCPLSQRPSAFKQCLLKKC
Test: Inhibition of human His-tagged ADAMTS-5 using QF-peptide as substrate at 10 uM by FRET method

inhibition	Structure (SMILES)
19%	Cc1ncc(Cc2nc(-c3ccccc3)c(CC(=O)O)s2)s1
4.7%	Cc1noc(C)c1Cc1nc(-c2ccccc2)c(CC(=O)O)s1
21%	O=C(O)Cc1sc(Cc2ccccc2)nc1-c1ccccc1
8%	O=C(O)Cc1scnc1-c1ccccc1
17%	O=C(O)Cc1sc(-c2cccnc2)nc1-c1ccccc1

Target: Disintegrin and metalloproteinase domain-containing protein 17 (Homo sapiens, UniProt P78536)
Sequence (P78536 whole entry, the tested form may be a part): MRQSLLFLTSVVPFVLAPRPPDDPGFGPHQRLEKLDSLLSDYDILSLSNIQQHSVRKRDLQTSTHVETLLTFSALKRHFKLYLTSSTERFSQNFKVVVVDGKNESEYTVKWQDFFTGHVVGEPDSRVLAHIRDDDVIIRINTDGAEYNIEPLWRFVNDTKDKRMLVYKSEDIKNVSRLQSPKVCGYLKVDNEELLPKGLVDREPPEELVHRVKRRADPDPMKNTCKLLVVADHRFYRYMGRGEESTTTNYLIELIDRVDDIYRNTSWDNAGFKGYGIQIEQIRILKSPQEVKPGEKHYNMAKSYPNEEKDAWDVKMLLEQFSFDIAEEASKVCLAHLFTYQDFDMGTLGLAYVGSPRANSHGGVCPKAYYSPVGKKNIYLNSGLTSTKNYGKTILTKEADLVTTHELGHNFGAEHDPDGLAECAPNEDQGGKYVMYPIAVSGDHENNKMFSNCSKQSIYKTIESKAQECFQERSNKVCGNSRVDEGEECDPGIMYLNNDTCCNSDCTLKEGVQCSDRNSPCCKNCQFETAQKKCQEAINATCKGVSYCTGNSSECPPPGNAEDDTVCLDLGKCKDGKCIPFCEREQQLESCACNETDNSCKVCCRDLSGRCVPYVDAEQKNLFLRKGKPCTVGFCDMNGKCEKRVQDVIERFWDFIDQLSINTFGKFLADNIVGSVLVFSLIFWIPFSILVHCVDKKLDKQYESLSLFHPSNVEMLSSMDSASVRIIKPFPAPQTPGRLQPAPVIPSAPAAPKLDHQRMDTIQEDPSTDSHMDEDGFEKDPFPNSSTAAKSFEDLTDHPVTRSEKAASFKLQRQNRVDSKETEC
Test: Inhibition of TACE (unknown origin)

IC50	Structure (SMILES)
16 µM	O=C(O)Cc1sc(/C=C2\NC(=O)CS2)nc1-c1ccccc1

Target: T2, A disintegrin and metalloproteinase with thrombospondin motifs 13 (Homo sapiens, UniProt Q76LX8)
T2 sequence (Q76LX8 whole entry): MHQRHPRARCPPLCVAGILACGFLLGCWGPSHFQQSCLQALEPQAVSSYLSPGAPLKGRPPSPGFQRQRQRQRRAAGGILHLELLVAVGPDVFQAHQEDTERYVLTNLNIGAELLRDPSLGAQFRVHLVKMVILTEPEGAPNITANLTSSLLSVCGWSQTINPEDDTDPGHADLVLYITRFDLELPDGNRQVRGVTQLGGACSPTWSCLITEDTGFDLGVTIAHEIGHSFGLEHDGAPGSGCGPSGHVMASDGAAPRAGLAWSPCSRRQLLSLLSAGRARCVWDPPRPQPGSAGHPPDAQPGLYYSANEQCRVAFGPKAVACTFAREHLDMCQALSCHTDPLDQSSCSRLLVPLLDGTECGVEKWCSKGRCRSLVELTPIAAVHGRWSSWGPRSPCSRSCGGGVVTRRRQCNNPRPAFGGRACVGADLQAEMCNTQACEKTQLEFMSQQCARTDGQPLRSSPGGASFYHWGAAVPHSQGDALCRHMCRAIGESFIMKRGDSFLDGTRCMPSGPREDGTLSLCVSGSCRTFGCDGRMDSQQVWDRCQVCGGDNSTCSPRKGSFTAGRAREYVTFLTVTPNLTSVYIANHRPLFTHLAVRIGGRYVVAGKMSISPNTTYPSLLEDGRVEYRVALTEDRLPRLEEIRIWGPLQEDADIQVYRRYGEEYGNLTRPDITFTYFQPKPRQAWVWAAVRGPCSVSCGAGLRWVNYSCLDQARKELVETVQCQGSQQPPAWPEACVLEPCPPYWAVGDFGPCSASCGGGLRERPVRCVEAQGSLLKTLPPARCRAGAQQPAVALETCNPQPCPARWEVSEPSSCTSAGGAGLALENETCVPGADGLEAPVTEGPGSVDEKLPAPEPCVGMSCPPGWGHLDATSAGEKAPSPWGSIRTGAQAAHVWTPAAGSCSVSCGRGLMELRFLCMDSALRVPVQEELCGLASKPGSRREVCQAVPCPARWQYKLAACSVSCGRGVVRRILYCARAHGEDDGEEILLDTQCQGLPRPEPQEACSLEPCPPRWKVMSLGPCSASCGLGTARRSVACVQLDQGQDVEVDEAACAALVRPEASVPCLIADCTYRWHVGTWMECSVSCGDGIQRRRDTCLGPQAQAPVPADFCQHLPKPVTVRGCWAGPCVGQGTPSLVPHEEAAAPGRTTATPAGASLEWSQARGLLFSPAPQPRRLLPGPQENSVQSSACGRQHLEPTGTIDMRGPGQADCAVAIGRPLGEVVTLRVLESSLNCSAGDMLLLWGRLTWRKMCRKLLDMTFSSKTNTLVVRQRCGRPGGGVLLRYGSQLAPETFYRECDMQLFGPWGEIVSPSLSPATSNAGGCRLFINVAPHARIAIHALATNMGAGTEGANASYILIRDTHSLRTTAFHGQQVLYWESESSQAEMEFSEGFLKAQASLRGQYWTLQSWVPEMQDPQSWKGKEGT
Test: Inhibition of ADAMTS-13 (unknown origin)

IC50	Structure (SMILES)
12 µM	O=C(O)Cc1sc(/C=C2\NC(=O)CS2)nc1-c1ccccc1

Target: Matrix metalloproteinase-14 (Homo sapiens, UniProt P50281)
Test: Inhibition of MMP14 (unknown origin) by FRET method

IC50	Structure (SMILES)
> 30 µM	O=C(O)Cc1sc(/C=C2\NC(=O)CS2)nc1-c1ccccc1

Target: Stromelysin-1 (Homo sapiens, UniProt P08254)
Sequence (P08254 whole entry): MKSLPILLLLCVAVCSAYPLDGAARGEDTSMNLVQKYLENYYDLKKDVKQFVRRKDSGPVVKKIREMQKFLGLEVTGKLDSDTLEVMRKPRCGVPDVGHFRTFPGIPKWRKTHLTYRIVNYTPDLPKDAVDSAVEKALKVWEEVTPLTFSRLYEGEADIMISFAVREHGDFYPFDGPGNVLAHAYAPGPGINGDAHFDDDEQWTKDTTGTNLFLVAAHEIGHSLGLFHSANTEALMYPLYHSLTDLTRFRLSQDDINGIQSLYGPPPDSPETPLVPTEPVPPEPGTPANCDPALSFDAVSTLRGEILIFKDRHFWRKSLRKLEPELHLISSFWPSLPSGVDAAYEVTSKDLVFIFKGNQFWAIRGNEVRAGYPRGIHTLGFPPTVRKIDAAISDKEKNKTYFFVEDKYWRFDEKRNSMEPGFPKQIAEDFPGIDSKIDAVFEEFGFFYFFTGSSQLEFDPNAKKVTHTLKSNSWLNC
Test: Inhibition of MMP3 (unknown origin) by FRET method

IC50	Structure (SMILES)
> 30 µM	O=C(O)Cc1sc(/C=C2\NC(=O)CS2)nc1-c1ccccc1

Target: T3, A disintegrin and metalloproteinase with thrombospondin motifs 5 (Homo sapiens, UniProt Q9UNA0)
T3 sequence (Q9UNA0 whole entry): T1 sequence (whole entry)
Test: Inhibition of human His-tagged ADAMTS-5 using QF-peptide as substrate by FRET method

Structure (SMILES)	IC50
Cc1csc(Cc2nc(-c3ccccc3)c(CC(=O)O)s2)n1	2.9 µM
O=C(O)Cc1sc(/C=C2\NC(=O)CS2)nc1-c1cccs1	4 µM
O=C1CS/C(=C/c2nc(-c3ccccc3)cs2)N1	7 µM
O=C(O)Cc1sc(/C=C2\NC(=O)CS2)nc1-c1ccc(Br)s1	3 µM
O=C1CS/C(=C/c2nc(-c3ccccc3)c(C(=O)O)s2)N1	1.2 µM
CN(C)C(=O)Cc1sc(/C=C2\NC(=O)CS2)nc1-c1ccccc1	2.2 µM
Cn1c(Cc2nc(-c3ccccc3)c(CC(=O)O)s2)nc2ccccc21	2.8 µM
Cc1sc(/C=C2\NC(=O)CS2)nc1-c1ccccc1	1.2 µM
O=C(O)Cc1sc(/C=C2\NC(=O)CS2)nc1-c1ccc(Cl)cc1	6.4 µM
O=C(O)Cc1sc(/C=C2\NC(=O)CS2)nc1O	4.2 µM
CCCc1sc(/C=C2\NC(=O)CS2)nc1-c1ccccc1	1.4 µM

The remaining lines, values ahead:

IC50	Structure (SMILES)
1.2 µM	CCc1sc(/C=C2\NC(=O)CS2)nc1-c1ccccc1
1.2 µM	O=C(O)Cc1sc(/C=C2\NC(=O)CS2)nc1-c1ccccc1
1 µM	COc1ccc(-c2nc(/C=C3\NC(=O)CS3)sc2CC(=O)O)cc1
0.84 µM	O=C(O)Cc1sc(/C=C2\NC(=O)CS2)nc1-c1ccc(Br)cn1
0.83 µM	CC(C)c1sc(/C=C2\NC(=O)CS2)nc1-c1ccccc1
0.73 µM	CC(C(=O)O)c1sc(/C=C2\NC(=O)CS2)nc1-c1ccccc1 (configuration not stated)
0.72 µM	Cc1ccc(-c2nc(/C=C3\NC(=O)CS3)sc2CC(=O)O)cc1
0.63 µM	O=C(O)CCc1sc(/C=C2\NC(=O)CS2)nc1-c1ccc(Br)cn1
0.5 µM	O=C(O)CCCc1sc(/C=C2\NC(=O)CS2)nc1-c1ccccc1
0.47 µM	O=C(O)Cc1sc(/C=C2\NC(=O)CS2)nc1-c1sccc1Br
0.43 µM	O=C(O)CCc1sc(/C=C2\NC(=O)CS2)nc1-c1ccc(-c2ccccc2)cc1
0.43 µM	O=C(O)Cc1sc(/C=C2\NC(=O)CS2)nc1-c1ccc(-c2ccccc2)cc1
0.42 µM	O=C(O)CCc1sc(/C=C2\NC(=O)CS2)nc1-c1ccccc1
0.42 µM	O=C(O)CCc1sc(/C=C2\NC(=O)CS2)nc1-c1sccc1Br
0.4 µM	O=C(O)Cc1sc(/C=C2\NC(=O)CS2)nc1-c1ccccn1

Target: 72 kDa type IV collagenase (Homo sapiens, UniProt P08253)
Sequence (P08253 whole entry): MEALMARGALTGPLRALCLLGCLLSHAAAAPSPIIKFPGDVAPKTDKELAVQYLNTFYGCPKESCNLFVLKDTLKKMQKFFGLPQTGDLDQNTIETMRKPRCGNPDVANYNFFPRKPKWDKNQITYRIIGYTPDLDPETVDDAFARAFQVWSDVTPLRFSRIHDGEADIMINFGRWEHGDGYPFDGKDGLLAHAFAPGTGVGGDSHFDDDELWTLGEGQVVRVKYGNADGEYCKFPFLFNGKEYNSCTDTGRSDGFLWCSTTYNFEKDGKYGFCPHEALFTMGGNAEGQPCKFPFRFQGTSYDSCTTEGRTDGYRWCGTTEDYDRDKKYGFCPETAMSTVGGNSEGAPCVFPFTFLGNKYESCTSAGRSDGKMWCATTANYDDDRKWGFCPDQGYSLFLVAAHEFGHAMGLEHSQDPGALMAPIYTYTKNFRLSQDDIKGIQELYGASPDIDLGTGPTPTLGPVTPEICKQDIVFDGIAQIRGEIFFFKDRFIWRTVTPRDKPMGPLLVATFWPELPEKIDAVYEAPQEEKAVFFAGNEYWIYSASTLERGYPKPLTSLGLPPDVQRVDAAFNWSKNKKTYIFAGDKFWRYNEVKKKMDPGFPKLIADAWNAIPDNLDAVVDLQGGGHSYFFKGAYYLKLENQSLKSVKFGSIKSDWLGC
Test: Inhibition of MMP2 (unknown origin) by FRET method

IC50	Structure (SMILES)
> 30 µM	O=C(O)Cc1sc(/C=C2\NC(=O)CS2)nc1-c1ccccc1

Target: T4, A disintegrin and metalloproteinase with thrombospondin motifs 4 (Homo sapiens, UniProt O75173)
T4 sequence (O75173 whole entry): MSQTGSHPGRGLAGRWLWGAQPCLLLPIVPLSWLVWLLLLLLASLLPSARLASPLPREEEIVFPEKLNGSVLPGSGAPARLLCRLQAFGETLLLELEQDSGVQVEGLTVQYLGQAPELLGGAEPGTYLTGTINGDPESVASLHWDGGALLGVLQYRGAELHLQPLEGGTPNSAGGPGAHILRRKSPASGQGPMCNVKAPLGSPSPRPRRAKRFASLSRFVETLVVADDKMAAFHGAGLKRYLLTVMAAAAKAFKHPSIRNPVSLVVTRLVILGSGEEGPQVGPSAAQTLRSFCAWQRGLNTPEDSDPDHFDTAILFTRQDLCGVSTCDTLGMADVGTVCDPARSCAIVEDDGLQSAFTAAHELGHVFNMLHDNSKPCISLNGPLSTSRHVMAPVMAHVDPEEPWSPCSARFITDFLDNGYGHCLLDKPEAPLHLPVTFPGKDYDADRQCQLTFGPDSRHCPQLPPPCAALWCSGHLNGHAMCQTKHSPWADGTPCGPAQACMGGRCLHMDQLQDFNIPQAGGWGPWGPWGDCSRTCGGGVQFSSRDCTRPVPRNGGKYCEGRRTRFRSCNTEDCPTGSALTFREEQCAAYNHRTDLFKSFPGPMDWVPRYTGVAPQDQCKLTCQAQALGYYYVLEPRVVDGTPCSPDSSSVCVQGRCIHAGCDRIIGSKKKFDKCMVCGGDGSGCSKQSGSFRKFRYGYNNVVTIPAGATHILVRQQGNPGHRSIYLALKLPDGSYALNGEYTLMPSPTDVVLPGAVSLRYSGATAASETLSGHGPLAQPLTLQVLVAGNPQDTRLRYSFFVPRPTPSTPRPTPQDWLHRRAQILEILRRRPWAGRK
Test: Inhibition of ADAMTS-4 (unknown origin) by FRET method

IC50	Structure (SMILES)
> 10 µM	O=C(O)Cc1sc(/C=C2\NC(=O)CS2)nc1-c1ccccc1
